Source: US20190282673A1, “STAPHTAME ACTIVITY ON BIOFILMS” (priority 2016, published 2019)
Several values for one entry are separate records, joined by “and”; a condition that tells them apart may be missing. Identical values can stand only once. Like-named read-outs stand apart in the source and are kept apart here.

Legend:
S. epidermidis = test: MIC and checkerboard synergy (broth microdilution) on planktonic cells; type: cell-based, Staphylococcus epidermidis; settings: for MIC: Staphylococcus epidermidis
Description: Bacterial cultures at a final cell number of 5×10^5 CFU/mL was added to wells of 96-well microtiter plates (precoated with 0.5% BSA), containing two-fold dilutions of P128 and the second drug in cation adjusted Mueller Hinton Broth (CAMHB). The plates were incubated at 37° C. for 24 h and the individual MICs and the combination MICs were read. The fractional inhibitory concentration index (FICI) was determined using the following equation: FICI=(MIC of drug A in the combination/MIC of drug A alone)+(MIC of drug B in the combination/MIC of drug B alone). The combination was considered to be synergistic when the FICI was ≤0.5; additive when FICI was 0.5-1.0; indifferent when FICI was 1-4 and antagonistic when FICI≥4.
S. epidermidis culture at a final cell number of 5×10^5 CFU/mL was added to wells of 96-well microtiter plates (precoated with 0.5% BSA), containing two-fold dilutions of P128 and either Daptomycin or Oxacillin in cation adjusted Mueller Hinton Broth (CAMHB). CAMHB was supplemented with 50 µg/mL Ca^++ for daptomycin assay. The plates were incubated at 37° C. for 24 h and the individual MICs and the combination MICs were read. The fractional inhibitory concentration index (FICI) was determined using the following equation: FICI=(MIC of drug A in the combination/MIC of drug A alone)+(MIC of drug B in the combination/MIC of drug B alone). The combination was considered to be synergistic when the FICI was ≤0.5; additive when FICI was between 0.5-1.0; indifferent when FICI was between 1-4 and antagonistic when FICI was ≥4. The experiments were performed in triplicate and repeated twice.

[1] = system: S. aureus strains BK18 and B9377; test: Generation and confirmation of antibiotic persisters (CFU over time); type: cell-based, Staphylococcus aureus; settings: for CFU/mL, generation of persisters / CFU/mL, confirmation of persisters (regrown, re-exposed): Vancomycin 100X; for CFU/mL, generation of persisters: Daptomycin 50X MIC; for CFU/mL, confirmation of persisters (regrown, re-exposed): Daptomycin 50×
Description: (§1) Persisters of S. aureus BK18 and B9377 and S. epidermidis strain B9470 were generated as per protocol described by Lechner, et al (Staphylococcus aureus persisters tolerant to bactericidal antibiotics. Lechner, et al. (2012) J Mol Microbiol Biotechnol; 22(4):235-44). Briefly, colonies were suspended in LB broth and allowed to grow at 37° C., 200 rpm for ˜2 hours. The cultures were pelleted, resuspended in MHB and OD600 was adjusted to 0.5 to 1.0 OD (˜2 to 5×10^8 CFU/mL). […] The test tubes were incubated at 37° C., 200 rpm, and 250 μL was sampled out at 4, 8, and 24 hr time points. This aliquot was pelleted, washed in saline and resuspended in equal volume of saline, diluted and plated on LB agar. Rapid decrease in CFUs, followed by rather stable values for up to 24 hrs, indicated the presence of Daptomycin/Vancomycin tolerant persisters.
(§2) After sampling for P128 and antibiotic activity, the rest of the sample was pelleted, washed in saline and resuspended into fresh media (LB). Allowed to grow at 37° C., 200 rpm until it reaches 1 OD and then the same steps followed as done for generation of persisters. A biphasic growth curve similar to that obtained during generation of persisters would indicate the tolerance to be phenotypic and not genotypic.

[2] = system: S. epidermidis strain B9470; test: as above; type: cell-based, Staphylococcus epidermidis; settings: for CFU/mL, generation of persisters: Vancomycin 50X, Daptomycin 10X MIC; for CFU/mL, confirmation of persisters (regrown, re-exposed): head prints Vancomycin 100X, Daptomycin 50×
Description: as §1, §2

[3] = system: S. epidermidis B9470 biofilms on catheters; test: Preformed biofilms on catheters, safranin staining and SEM; type: cell-based, Staphylococcus epidermidis; settings: 18 hrs; P128 8 μg/mL (1×MIC); vancomycin 30 μg/mL (30×MIC)
Description: In order to simulate the in vivo conditions for biofilm formation in device associated infections, S. epidermidis B9470 was allowed to form biofilms on the surface of catheters. An overnight-grown culture was diluted 1:40 in TSB containing 4% sodium chloride. Catheter (JMS Infusion set) pieces of 1-2 cm size were cut, slit into two halves and added to the culture. The cultures with catheter pieces were incubated at 37° C. with shaking at 100 rpm for 42 h. Post incubation, the catheters were removed and rinsed twice in PBS to remove the adhering planktonic cells. The biofilms on catheters were challenged with 8 μg/mL of P128 or 30 μg/mL of vancomycin by transferring the catheter pieces into tubes containing the drugs. The tubes were incubated at 37° C. under static conditions for 18 hrs. The catheters were then removed from the tubes, rinsed once in PBS, and immersed in 0.1% safranin [a dye that stains cell wall of bacteria] for 5 min. The stained catheters were washed once in PBS and allowed to dry. After drying, samples were fixed on aluminum stubs with double sided carbon adhesive tape, coated with 5-7 nm thickness gold using a sputter-coating system (Quorum Technologies; Q150T) and examined by SEM (Carl Zeiss. Neon 40) for the presence of biofilm structures.

S. aureus USA300 = test: Mouse model of S. aureus with mucin-enhanced virulence, survival; type: in vivo, BALB/c mice; settings: S. aureus USA300 10^9 CFU ip, P128 […] ip, Vancomycin 27.5 mg/kg sc 2 doses, or both
Description: Eight to nine weeks old female BALB/c mice were challenged intraperitoneally with 10^9 CFU of S. aureus USA300. At 2 hours post-infection, animals were treated with either P128 at 2.5 mg/kg intraperitoneally, or vancomycin at 27.5 mg/kg subcutaneously, or combination of both. Groups treated with only vancomycin or combination of P128 and vancomycin were administered with a second dose of vancomycin at 12 hours after the first treatment. At 72 hours post-infection, P128 and vancomycin yielded 56 and 44% survival, respectively.

Molecule: CCCCCCCCCC(=O)N[C@@H](Cc1c[nH]c2ccccc12)C(=O)N[C@H](CC(N)=O)C(=O)N[C@@H](CC(=O)O)C(=O)N[C@@H]1C(=O)NCC(=O)N[C@@H](CCCN)C(=O)N[C@@H](CC(=O)O)C(=O)N[C@H](C)C(=O)N[C@@H](CC(=O)O)C(=O)NCC(=O)N[C@H](CO)C(=O)N[C@@H]([C@H](C)CC(=O)O)C(=O)N[C@@H](CC(=O)c2ccccc2N)C(=O)O[C@@H]1C [Daptomycin, daptomycin]
- MIC (S. epidermidis; ATCC12228, S. epidermidis ATCC 12228, read-out: MIC (drug alone)): 1 µg/mL
- MIC (S. epidermidis; S. epidermidis B9467, read-out: MIC (drug alone)): 2 µg/mL
- MIC (S. epidermidis; S. epidermidis B9468, read-out: MIC (drug alone)): 0.5 µg/mL
- MIC (S. epidermidis; S. epidermidis B9471, read-out: MIC (drug alone)): 2 µg/mL
- MIC (S. epidermidis; S. epidermidis B9472, read-out: MIC (drug alone)): 2 µg/mL
- MIC (S. epidermidis; S. epidermidis strains of Tables 7 and 8, read-out: MIC over the strains): 0.5 to 2 µg/mL
- CFU/mL, generation of persisters ([1]; B9377, 0 h): 2.5 × 10^8 CFU/mL
- CFU/mL, confirmation of persisters (regrown, re-exposed) ([1]; B9377, 0 h): 2.5 × 10^8 CFU/mL
- CFU/mL, generation of persisters ([1]; B9377, 4 h): 4 × 10^3 CFU/mL
- CFU/mL, confirmation of persisters (regrown, re-exposed) ([1]; B9377, 4 h): 6 × 10^3 CFU/mL
- CFU/mL, generation of persisters ([1]; B9377, 8 h): 1 × 10^3 CFU/mL
- CFU/mL, confirmation of persisters (regrown, re-exposed) ([1]; B9377, 8 h): 1 × 10^3 CFU/mL
- CFU/mL, generation of persisters ([1]; B9377, 24 h): 5.5 × 10^3 CFU/mL
- CFU/mL, confirmation of persisters (regrown, re-exposed) ([1]; B9377, 24 h): 9 × 10^2 CFU/mL
- CFU/mL, generation of persisters ([1]; BK18, 0 h): 2 × 10^8 CFU/mL
- CFU/mL, confirmation of persisters (regrown, re-exposed) ([1]; BK18, 0 h): 1 × 10^8 CFU/mL
- CFU/mL, generation of persisters ([1]; BK18, 4 h): 3 × 10^3 CFU/mL
- CFU/mL, confirmation of persisters (regrown, re-exposed) ([1]; BK18, 4 h): 3 × 10^2 CFU/mL
- CFU/mL, generation of persisters ([1]; BK18, 8 h): 1 × 10^3 CFU/mL
- CFU/mL, confirmation of persisters (regrown, re-exposed) ([1]; BK18, 8 h): 1 × 10^2 CFU/mL
- CFU/mL, generation of persisters ([1]; BK18, 24 h): 5 × 10^3 CFU/mL
- CFU/mL, confirmation of persisters (regrown, re-exposed) ([1]; BK18, 24 h): 6 × 10^2 CFU/mL
- Drop in CFU at the end of 4 h treatment ([1]; generation of persisters): 5 log
- CFU/mL, generation of persisters ([2]; B9470, 0 h): 3.2 × 10^7 CFU/mL
- CFU/mL, confirmation of persisters (regrown, re-exposed) ([2]; B9470, 0 h): 1 × 10^7 CFU/mL
- CFU/mL, generation of persisters ([2]; B9470, 2 h): 1 × 10^7 CFU/mL
- CFU/mL, confirmation of persisters (regrown, re-exposed) ([2]; B9470, 2 h): 9 × 10^4 CFU/mL
- CFU/mL, generation of persisters ([2]; B9470, 4 h): 2.3 × 10^6 CFU/mL
- CFU/mL, confirmation of persisters (regrown, re-exposed) ([2]; B9470, 4 h): 4 × 10^3 CFU/mL
- CFU/mL, generation of persisters ([2]; B9470, 8 h): 5 × 10^5 CFU/mL
- CFU/mL, confirmation of persisters (regrown, re-exposed) ([2]; B9470, 8 h): 6 × 10^2 CFU/mL
- CFU/mL, generation of persisters ([2]; B9470, 24 h): 3 × 10^6 CFU/mL
- CFU/mL, confirmation of persisters (regrown, re-exposed) ([2]; B9470, 24 h): 5 × 10^3 CFU/mL

B1: P128: anti-staphylococcal chimeric protein: phage tail associated muralytic enzyme (TAME) cell wall-degrading region plus staphylococcus-specific binding region; SEQ ID NO: 1 (protein)
chain: MSLDSLKKYNGKLPKHDPSFVQPGNRHYKYQCTWYAYNRRGQLGIPVPLWGDAADWIGGAKGAGYGVGRTPKQGACVIWQRGVQGGSPQYGHVAFVEKVLDGGKKIFISEHNYATPNGYGTRTIDMSSAIGKNAQFIYDKKLETPNTGWKTNKYGTLYKSESASFTPNTDIITRTTGPFRSMPQSGVLKAGQTIHYDEVMKQDGHVWVGYTGNSGQRIYLPVRTWNKSTNTLGVLWGTIK
modifications: P128 chimera
- MIC (drug alone) (S. epidermidis; S. epidermidis ATCC 12228): 4 µg/mL
- MIC (drug alone) (S. epidermidis; S. epidermidis B9467): 32 µg/mL
- MIC (drug alone) (S. epidermidis; S. epidermidis B9468): 2 µg/mL
- MIC (drug alone) (S. epidermidis; S. epidermidis B9470): 8 µg/mL
- MIC (drug alone) (S. epidermidis; S. epidermidis B9472): 16 µg/mL and 8 µg/mL
- MIC (drug alone) (S. epidermidis; S. epidermidis B9473): 16 µg/mL
- MIC over the strains (S. epidermidis; S. epidermidis strains of Tables 7 and 8): 2 to 32 µg/mL
- Effect on catheter biofilm (safranin/SEM) [3]: eradication of the biofilm
- Survival at 72 h post infection (S. aureus USA300): 56%
